Assay results published in article PMC8151276, “An Integrated Approach toward NanoBRET Tracers for Analysis of GPCR Ligand Engagement” (Molecules, 2021).

What was measured:
[1] = target: T1, SSTR1 (Homo sapiens, UniProt P30872); experiment: NanoBRET screen HiBiT-SSTR1 in HEK293; type: binding
T1 construct: purchased Promega (in-house HiBiT-GPCR construct library, NanoBRET)
Protocol: (§1) Each tracer candidate was screened across the entire library of HiBiT-GPCR constructs using NanoBRET as the detection modality. As depicted in Figure 4A, the specificity of interactions was evaluated through decrease in BRET due to competitive displacement of a bound tracer by excess parental compound. Each tracer was analyzed for binding to each HiBiT-GPCR fusion in the absence and in the presence of competing parental compound. Briefly, HEK293 cells were transfected with HiBiT-GPCR constructs diluted into promoterless DNA to reduce expression and maximize translocation to the cell surface. Each tracer candidate was then screened at concentrations of 1 μM and 0.1 μM across cells expressing these fusions. Cells were treated for 1.5 h with tracer either alone or in the presence of 20 μM competing parental compound (i.e., control). BRET was measured upon addition of purified LgBiT and subsequent complementation with HiBiT genetically fused to a GPCR. The specificity of interactions was assessed through a decrease in BRET signal due to competitive displacement of the bound tracer. To further gauge the robustness of these interactions, the fold response over the control (i.e., BRETtracer/BRETcontrol) was calculated. We chose a 1.5-fold response, which translates to ≥7-fold signal over noise as the minimal threshold required to score an interaction as positive. […]. Below we highlight the screening results obtained for our exemplary fluorescent tracers based on Clozapine, Amitriptyline and AZD1283.
(§2) HiBiT-GPCR DNA constructs were diluted in 10 mM Tris pH 8 to a final concentration of 0.01 μg/μL, arrayed in 96-well plates and stored at −20 °C. For transfection, HEK293 cells were suspended in Opti-MEM (without phenol red) supplemented with 2% fetal bovine serum (Seradigm) and 100 units/mL penicillin–streptomycin (Gibco) at a final concentration of 220,000 cells/mL and dispensed into white 96-well plates at 90 μL/well. Subsequent transfections and screens were carried using an Agilent Bravo Automated Liquid Handling Platform. First, the 96-well HiBiT DNA arrays were diluted 25-fold in Opti-MEM (without serum or phenol red) to a final concentration of 0.0004 μg/μL and 20 μL of the diluted DNAs were transferred into new 96-well plates. Next, promoterless carrier DNA (1 μg/μL) was diluted 25-fold (0.04 μg/μL) and then dispensed into the diluted arrays at 20 μL/well. Following brief mixing, Viafect transfection reagent (Promega) diluted 16-fold into Opti-MEM was dispensed into the plates at 40 μL/well. After mixing by pipetting, plates were incubated for 10 min on the pipetting station deck. The DNA-transfection reagent complexes were then added to plates containing cells. To facilitate the screen, 10 μL of DNA-transfection reagent complexes were added in duplicates to the top 4 and bottom 4 rows, resulting in two identical 48-well arrays per plate. Plates with transfected cells were incubated for 18–20 h at 37 °C/5% CO2. A screen of each tracer across the entire library using two different concentrations requires duplicate plates of transfected cells. Depending on the number of tracers being screened, transfections can be scaled up using the same ratios. The next day, for each tracer, four 20× screening solutions in tracer dilution buffer (Promega) were prepared: two duplicates at final concentration of 20 μM and two duplicates at a final concentration of 2 μM. A competing unmodified compound was added to one of each duplicate at a final concentration of 400 μM. The four resulting solutions were diluted 4-fold in Opti-MEM without serum or phenol red to generate 5× solutions (5 µM and 0.5 µM tracer +/− 100 μM competing compound). To screen the library, a BioTek MultiFlo FX liquid dispenser was used to dispense 22.5 µL of tracer solution to the top 4 rows and 22.5 µL tracer + competing compound solution to the 4 bottom rows. Plates were briefly mixed on an orbital shaker and incubated for 1.5 h at room temperature. […]

[2] = target: T2, GRM3 (Homo sapiens, UniProt Q14832); experiment: NanoBRET screen HiBiT-GRM3 in HEK293; type: binding
T2 construct: purchased Promega (in-house HiBiT-GPCR construct library, NanoBRET)
T2 sequence (Q14832 23-879): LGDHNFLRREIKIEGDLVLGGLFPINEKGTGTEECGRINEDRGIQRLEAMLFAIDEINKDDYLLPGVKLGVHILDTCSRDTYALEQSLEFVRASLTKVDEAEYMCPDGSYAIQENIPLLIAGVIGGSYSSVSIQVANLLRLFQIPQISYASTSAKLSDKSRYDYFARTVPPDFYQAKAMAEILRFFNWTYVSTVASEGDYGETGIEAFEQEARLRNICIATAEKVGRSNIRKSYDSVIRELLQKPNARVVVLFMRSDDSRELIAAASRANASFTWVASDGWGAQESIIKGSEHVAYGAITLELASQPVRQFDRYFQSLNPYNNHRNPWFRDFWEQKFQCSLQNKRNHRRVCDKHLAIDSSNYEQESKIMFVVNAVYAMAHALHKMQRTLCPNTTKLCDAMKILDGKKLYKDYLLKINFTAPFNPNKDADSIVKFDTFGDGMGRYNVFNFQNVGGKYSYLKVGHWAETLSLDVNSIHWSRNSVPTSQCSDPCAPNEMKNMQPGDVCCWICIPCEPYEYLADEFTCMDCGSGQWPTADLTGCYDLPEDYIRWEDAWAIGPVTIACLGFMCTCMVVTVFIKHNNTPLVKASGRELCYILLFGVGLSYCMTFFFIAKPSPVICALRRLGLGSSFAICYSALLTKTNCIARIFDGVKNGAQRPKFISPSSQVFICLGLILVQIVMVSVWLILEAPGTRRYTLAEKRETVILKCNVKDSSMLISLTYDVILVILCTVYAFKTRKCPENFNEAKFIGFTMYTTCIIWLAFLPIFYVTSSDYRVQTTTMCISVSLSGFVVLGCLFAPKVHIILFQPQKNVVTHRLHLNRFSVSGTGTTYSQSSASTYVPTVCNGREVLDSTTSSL
Protocol: as §1, §2

T1 sequence (P30872 whole entry): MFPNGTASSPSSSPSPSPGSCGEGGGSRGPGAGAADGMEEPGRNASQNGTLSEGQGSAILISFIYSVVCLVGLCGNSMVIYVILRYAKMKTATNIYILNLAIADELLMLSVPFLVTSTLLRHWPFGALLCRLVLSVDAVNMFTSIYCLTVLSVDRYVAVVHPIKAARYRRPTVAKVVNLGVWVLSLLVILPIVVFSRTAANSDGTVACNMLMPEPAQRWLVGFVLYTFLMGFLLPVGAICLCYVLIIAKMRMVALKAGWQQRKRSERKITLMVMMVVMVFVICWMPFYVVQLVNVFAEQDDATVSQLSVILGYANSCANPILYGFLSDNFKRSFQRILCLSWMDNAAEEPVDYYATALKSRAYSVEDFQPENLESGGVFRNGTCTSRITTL

| Structure (SMILES) | NanoBRET Fold Response ([1]; SSTR1, tracer 0.1μM) | NanoBRET Fold Response ([1]; SSTR1, tracer 1μM) | NanoBRET Fold Response ([2]; GRM3, tracer 0.1μM) | NanoBRET Fold Response ([2]; GRM3, tracer 1μM) | further results |
| --- | --- | --- | --- | --- | --- |
| CCOC(=O)c1cc(C#N)c(N2CCC(C(=O)NS(=O)(=O)Cc3ccccc3/C=C/C(=O)NCCNC(=O)CCc3ccc4n3[B-](F)(F)[N+]3=C(c5ccc[nH]5)C=CC3=C4)CC2)nc1C [AZD1283-1-NB590] | – | – | – | – | NanoBRET Fold Response ([1]; SSTR1, 0.1μM): 1.08; NanoBRET Fold Response ([1]; SSTR1, 1μM): 1.10; NanoBRET Fold Response ([2]; GRM3, 0.1μM): 0.97; NanoBRET Fold Response ([2]; GRM3, 1μM): 0.99 |
| N#CN=C(NCCCOc1cccc(CN2CCCCC2)c1)NCCNC(=O)CCOCCOCCOCCOCCNC(=O)CCc1ccc2n1[B-](F)(F)[N+]1=C(c3ccc[nH]3)C=CC1=C2 [Aminopotentidine-2-NB590] | 1.02 | 0.98 | 1.01 | 1.03 | – |
| CN(C)CCC=C1c2ccccc2CCc2ccc(C(=O)NCCNC(=O)CCOCCOCCOCCOCCNC(=O)CCc3ccc4n3[B-](F)(F)[N+]3=C(c5ccc[nH]5)C=CC3=C4)cc21 [Amitriptyline-a-2-NB590] | – | – | – | – | NanoBRET Fold Response ([1]; tracer at 0.1μM): 1.30; NanoBRET Fold Response ([1]; tracer at 1μM): 1.28 |
| CN(C)CCC=C1c2ccccc2CCc2ccc(C(=O)NCCNC(=O)CCOCCOCCOCCOCCNC(=O)CCc3ccc4n3[B-](F)(F)[N+]3=C(c5ccc[nH]5)C=CC3=C4)cc21 [Amitriptyline-b-2-NB590] | – | – | 1.00 | 1.03 | NanoBRET Fold Response ([1]; tracer at 1μM, listed as amitriptyline-b-2-NB590): 1.07 |
| COc1ccc2c(n1)c(CCNC(C)=O)cn2CCNC(=O)CCc1ccc2n1[B-](F)(F)[N+]1=C(c3ccc[nH]3)C=CC1=C2 [Azamelatonin-1-NB590] | – | – | – | – | NanoBRET Fold Response ([1]; 0.1μM tracer): 1.08; NanoBRET Fold Response ([1]; 1μM tracer): 1.03; NanoBRET Fold Response ([2]; 0.1μM tracer): 0.95; NanoBRET Fold Response ([2]; 1μM tracer): 1.02 |
| COc1ccc2[nH]c(-c3ccc(CNC(=O)CCOCCOCCOCCOCCNC(=O)CCc4ccc5n4[B-](F)(F)[N+]4=C(c6ccc[nH]6)C=CC4=C5)cc3)c(CCNC(C)=O)c2n1 [AzomelatoninICO9-2-NB590] | – | – | – | – | NanoBRET Fold Response ([1]; 0.1μM tracer): 1.13; NanoBRET Fold Response ([1]; 1μM tracer): 1.01; NanoBRET Fold Response ([2]; 0.1μM tracer): 1.03; NanoBRET Fold Response ([2]; 1μM tracer): 0.85 |
| O=C(CCOCCOCCOCCOCCNC(=O)CCc1ccc2n1[B-](F)(F)[N+]1=C(c3ccc[nH]3)C=CC1=C2)NCCCN1CCN(C2=Nc3cc(Cl)ccc3Nc3ccccc32)CC1 [Clozapine-a-2-NB590] | – | – | – | – | NanoBRET Fold Response ([1]; SSTR1, 0.1μM tracer): 0.96; NanoBRET Fold Response ([1]; SSTR1, 1μM tracer): 1.00; NanoBRET Fold Response ([2]; GRM3, 0.1μM tracer): 0.97; NanoBRET Fold Response ([2]; GRM3, 1μM tracer): 0.96 |
| CN1CCN(C2=Nc3cc(Cl)ccc3Nc3ccc(CNC(=O)CCOCCOCCOCCOCCNC(=O)CCc4ccc5n4[B-](F)(F)[N+]4=C(c6ccc[nH]6)C=CC4=C5)cc32)CC1 [Clozapine-b-2-NB590] | – | – | – | – | NanoBRET Fold Response ([1]; SSTR1, 0.1μM tracer): 1.00; NanoBRET Fold Response ([1]; SSTR1, 1μM tracer): 1.09; NanoBRET Fold Response ([2]; GRM3, 0.1μM tracer): 0.99 |
| CN1CCN(C2=Nc3cc(Cl)ccc3N(CC(=O)NCCOCCOCCOCCOCCNC(=O)CCc3ccc4n3[B-](F)(F)[N+]3=C(c5ccc[nH]5)C=CC3=C4)c3ccccc32)CC1 [Clozapine-c-2-NB590] | – | – | – | – | NanoBRET Fold Response ([1]; SSTR1, 0.1μM tracer): 0.98; NanoBRET Fold Response ([1]; SSTR1, 1μM tracer): 1.02; NanoBRET Fold Response ([2]; GRM3, 0.1μM tracer): 0.93; NanoBRET Fold Response ([2]; GRM3, 1μM tracer): 1.07 |
| O=C(CCOCCOCCOCCOCCNC(=O)CCc1ccc2n1[B-](F)(F)[N+]1=C(c3ccc[nH]3)C=CC1=C2)NCCCN1CCN(C2=Nc3ccccc3Oc3ccc(Cl)cc32)CC1 [Loxapine-a-2-NB590] | 1.06 | 1.30 | 0.99 | 1.03 | – |
| COc1ccccc1N1CCN(CCCCN2C(=O)c3ccc(CNC(=O)CCOCCOCCOCCOCCNC(=O)CCc4ccc5n4[B-](F)(F)[N+]4=C(c6ccc[nH]6)C=CC4=C5)cc3C2=O)CC1 [NAN-190-2-NB590] | 0.94 | 1.08 | 0.95 | – | – |
| COc1ccccc1N1CCN(CCCCN2C(=O)c3ccc(CNC(=O)CCOCCNC(=O)c4ccc(CNC(=O)CCc5ccc6n5[B-](F)(F)[N+]5=C(c7ccc[nH]7)C=CC5=C6)cc4)cc3C2=O)CC1 [NAN-190-3-NB590] | 1.03 | 1.12 | 0.98 | 1.25 | – |
| O=C(CCc1ccc2n1[B-](F)(F)[N+]1=C(c3ccc[nH]3)C=CC1=C2)NCc1ccc(C(=O)NCCOCCC(=O)N[C@@H]2CC[C@@]3(O)[C@H]4Cc5ccc(O)c6c5[C@@]3(CCN4CC3CC3)[C@H]2O6)cc1 [Naltrexone-3-NB590] | 1.06 | 0.96 | 1.15 | 0.81 | – |
| Cc1cc2c(s1)Nc1ccccc1N=C2N1CCN(CCCNC(=O)CCOCCOCCOCCOCCNC(=O)CCc2ccc3n2[B-](F)(F)[N+]2=C(c4ccc[nH]4)C=CC2=C3)CC1 [Olanzapine-a-2-NB590] | 1.08 | 1.16 | 1.02 | 1.02 | – |
| O=C(CCc1ccc2n1[B-](F)(F)[N+]1=C(c3ccc[nH]3)C=CC1=C2)NCc1ccc(C(=O)NCCOCCOCCNCC(O)COc2cccc3ccccc23)cc1 (stereo not drawn) [Propranolol-3-NB590] | – | – | – | – | NanoBRET Fold Response ([1]; SSTR1, 0.1μM): 1.04; NanoBRET Fold Response ([1]; SSTR1, 1μM): 1.02; NanoBRET Fold Response ([2]; GRM3, 0.1μM): 1.02; NanoBRET Fold Response ([2]; GRM3, 1μM): 0.95 |
| O=C(CCc1ccc2n1[B-](F)(F)[N+]1=C(c3ccc[nH]3)C=CC1=C2)NCCOCCOCCNC(=O)OCCOCCN1CCN(C2=Nc3ccccc3Sc3ccccc32)CC1 [Quetiapine-a-2-NB590] | 0.92 | 0.92 | 1.08 | 1.09 | – |
| Cc1nc2n(c(=O)c1CCN1CCC(c3noc4cc(F)ccc34)CC1)CCCC2OC(=O)NCCOCCOCCOCCOCCNC(=O)CCc1ccc2n1[B-](F)(F)[N+]1=C(c3ccc[nH]3)C=CC1=C2 (stereo not drawn) [Risperidone-2-NB590] | 1.08 | 0.94 | 1.07 | 1.07 | – |
| CC(C)N(CC[C@H](c1ccccc1)c1cc(CCNC(=O)CCOCCOCCOCCOCCNC(=O)CCc2ccc3n2[B-](F)(F)[N+]2=C(c4ccc[nH]4)C=CC2=C3)ccc1O)C(C)C [Tolterodine-2-NB590] | 1.11 | 1.21 | 0.82 | 1.09 | – |
| CC(C)N(CC[C@H](c1ccccc1)c1cc(CCNC(=O)c2ccc(CNC(=O)CCc3ccc4n3[B-](F)(F)[N+]3=C(c5ccc[nH]5)C=CC3=C4)cc2)ccc1O)C(C)C [Tolterodine-BZ-NB590] | 1.15 | 1.20 | 0.99 | 1.06 | – |
| CCCn1c(=O)c2[nH]c(-c3ccc(OCC(=O)NCCNC(=O)CCOCCNC(=O)c4ccc(CNC(=O)CCc5ccc6n5[B-](F)(F)[N+]5=C(c7ccc[nH]7)C=CC5=C6)cc4)cc3)nc2n(CCC)c1=O [XAC-3-NB590] | 0.98 | 1.05 | 1.02 | 1.10 | – |
